Measurements reported in PubChem BioAssay (NCI).
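These data come from cells grown in 96-well plates and exposed to compound for 48 hours at five concentrations. Definition used: TGI = concentration required for complete inhibition of growth.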

How the values were obtained:
Experiment in all cases: DTP human tumour cell line panel, 48 h
MOLT-4 leukemia = system: MOLT-4 leukemia
SK-OV-3 ovarian = system: SK-OV-3 ovarian
NCI-H522 lung = system: NCI-H522 lung
MDA-MB-435 = system: MDA-MB-435
A549 NSCLC = system: A549 NSCLC
SN12C renal = system: SN12C renal
HCC-2998 colon = system: HCC-2998 colon
SF-268 CNS = system: SF-268 CNS
SNB-75 CNS = system: SNB-75 CNS
COLO 205 colon = system: COLO 205 colon
CCRF-CEM leukemia = system: CCRF-CEM leukemia
OVCAR-8 ovarian = system: OVCAR-8 ovarian
MCF7 breast = system: MCF7 breast
KM12 colon = system: KM12 colon
NCI-H23 lung = system: NCI-H23 lung
PC-3 prostate = system: PC-3 prostate
ACHN renal = system: ACHN renal
U251 CNS = system: U251 CNS
NCI-H460 lung = system: NCI-H460 lung
SNB-19 CNS = system: SNB-19 CNS
MDA-N = system: MDA-N
CAKI-1 renal = system: CAKI-1 renal
SK-MEL-2 melanoma = system: SK-MEL-2 melanoma
RXF 393 renal = system: RXF 393 renal
MDA-MB-231 breast = system: MDA-MB-231 breast
T-47D breast = system: T-47D breast
RPMI-8226 leukemia = system: RPMI-8226 leukemia
HL-60(TB) leukemia = system: HL-60(TB) leukemia
NCI-H226 lung = system: NCI-H226 lung
SK-MEL-28 melanoma = system: SK-MEL-28 melanoma
OVCAR-4 ovarian = system: OVCAR-4 ovarian
BT-549 breast = system: BT-549 breast
SK-MEL-5 melanoma = system: SK-MEL-5 melanoma
SR leukemia = system: SR leukemia
M14 melanoma = system: M14 melanoma
NCI/ADR-RES ovarian = system: NCI/ADR-RES ovarian
K-562 leukemia = system: K-562 leukemia
SF-295 CNS = system: SF-295 CNS
HOP-92 NSCLC = system: HOP-92 NSCLC
TK-10 renal = system: TK-10 renal
OVCAR-3 ovarian = system: OVCAR-3 ovarian
A498 renal = system: A498 renal
HS 578T breast = system: HS 578T breast
UACC-62 melanoma = system: UACC-62 melanoma
HCT-116 colon = system: HCT-116 colon
HT29 colon = system: HT29 colon
IGROV1 ovarian = system: IGROV1 ovarian
HOP-62 NSCLC = system: HOP-62 NSCLC
EKVX NSCLC = system: EKVX NSCLC
OVCAR-5 ovarian = system: OVCAR-5 ovarian
SW-620 colon = system: SW-620 colon
DU-145 prostate = system: DU-145 prostate
UACC-257 melanoma = system: UACC-257 melanoma
MALME-3M melanoma = system: MALME-3M melanoma
786-0 renal = system: 786-0 renal
SF-539 CNS = system: SF-539 CNS
HCT-15 colon = system: HCT-15 colon
LOX IMVI melanoma = system: LOX IMVI melanoma
UO-31 renal = system: UO-31 renal

Work on Cc1ccc2c(n1)C(=O)C=CC2=O yielded a TGI (MOLT-4 leukemia) greater than 24 µM, a TGI (SK-OV-3 ovarian) of 49.5 µM and a TGI (NCI-H522 lung) of 3.51 µM. It also gave a TGI (MDA-MB-435) of 33 µM, a TGI (A549 NSCLC) of 41.2 µM and a TGI (SN12C renal) of 29.8 µM. For the same compound, the TGI (HCC-2998 colon) was 33.5 µM, the TGI (SF-268 CNS) was 42.7 µM and the TGI (SNB-75 CNS) was 38.2 µM. For the same compound, the TGI (COLO 205 colon) was 4.95 µM, the TGI (CCRF-CEM leukemia) was greater than 22.4 µM and the TGI (OVCAR-8 ovarian) was 33.7 µM. For the same compound, the TGI (MCF7 breast) was 53.8 µM, the TGI (KM12 colon) was 46.2 µM and the TGI (NCI-H23 lung) was 30.6 µM. For the same compound, the TGI (PC-3 prostate) was 31.9 µM, the TGI (ACHN renal) was 8.63 µM and the TGI (U251 CNS) was 40.6 µM. It also gave a TGI (NCI-H460 lung) of 36.2 µM, a TGI (SNB-19 CNS) of 34 µM and a TGI (MDA-N) of 20.3 µM. The TGI (CAKI-1 renal) was 4.54 µM, the TGI (SK-MEL-2 melanoma) was 32.3 µM and the TGI (RXF 393 renal) was 13.6 µM. For the same compound, the TGI (MDA-MB-231 breast) was 19.5 µM, the TGI (T-47D breast) was 4.74 µM and the TGI (RPMI-8226 leukemia) was 11 µM. It also gave a TGI (HL-60(TB) leukemia) greater than 22.5 µM, a TGI (NCI-H226 lung) of 42.8 µM and a TGI (SK-MEL-28 melanoma) of 15.3 µM. The TGI (OVCAR-4 ovarian) was 12.8 µM, the TGI (BT-549 breast) was 31.5 µM and the TGI (SK-MEL-5 melanoma) was 29.4 µM. For the same compound, the TGI (SR leukemia) was greater than 100 µM, the TGI (M14 melanoma) was 32.3 µM and the TGI (NCI/ADR-RES ovarian) was 48.6 µM. For the same compound, the TGI (K-562 leukemia) was 18 µM, the TGI (SF-295 CNS) was 35.7 µM and the TGI (HOP-92 NSCLC) was 13.7 µM. It also gave a TGI (TK-10 renal) of 6.21 µM, a TGI (OVCAR-3 ovarian) of 8.54 µM and a TGI (A498 renal) of 31.1 µM. It also gave a TGI (HS 578T breast) greater than 78.5 µM, a TGI (UACC-62 melanoma) of 29.2 µM and a TGI (HCT-116 colon) of 4.12 µM. It also gave a TGI (HT29 colon) of 38 µM, a TGI (IGROV1 ovarian) of 29.3 µM and a TGI (HOP-62 NSCLC) greater than 58.3 µM. The TGI (EKVX NSCLC) was 15 µM, the TGI (OVCAR-5 ovarian) was 34.4 µM and the TGI (SW-620 colon) was 8.76 µM. It also gave a TGI (DU-145 prostate) of 30.7 µM, a TGI (UACC-257 melanoma) of 14.6 µM and a TGI (MALME-3M melanoma) of 16.8 µM. For the same compound, the TGI (786-0 renal) was 11.4 µM, the TGI (SF-539 CNS) was 35.3 µM and the TGI (HCT-15 colon) was 26.3 µM. It also gave a TGI (LOX IMVI melanoma) of 12.6 µM and a TGI (UO-31 renal) of 10.4 µM.

In the case of O=C1O[C@H]2[C@H](O)[C@@H](OC(=O)c3cc(O)c(O)c4c3[C@@H]3C1=CC(=O)C(O)(O)C3(O)O4)[C@H](OC(=O)c1cc(O)c(O)c(O)c1)O[C@@H]2CO (stereo partly specified), the TGI (MOLT-4 leukemia) was greater than 100 µM, the TGI (SK-OV-3 ovarian) was greater than 100 µM and the TGI (NCI-H522 lung) was greater than 100 µM. For the same compound, the TGI (MDA-MB-435) was greater than 100 µM, the TGI (A549 NSCLC) was greater than 100 µM and the TGI (SN12C renal) was greater than 100 µM. The TGI (HCC-2998 colon) was greater than 100 µM, the TGI (SF-268 CNS) was greater than 100 µM and the TGI (SNB-75 CNS) was greater than 100 µM. The TGI (COLO 205 colon) was greater than 100 µM, the TGI (CCRF-CEM leukemia) was 46.1 µM and the TGI (OVCAR-8 ovarian) was greater than 100 µM. The TGI (MCF7 breast) was greater than 100 µM, the TGI (KM12 colon) was greater than 100 µM and the TGI (NCI-H23 lung) was greater than 100 µM. It also gave a TGI (PC-3 prostate) greater than 100 µM, a TGI (ACHN renal) greater than 100 µM and a TGI (U251 CNS) greater than 100 µM. It also gave a TGI (NCI-H460 lung) greater than 100 µM, a TGI (SNB-19 CNS) greater than 100 µM and a TGI (MDA-N) greater than 100 µM. For the same compound, the TGI (CAKI-1 renal) was greater than 100 µM, the TGI (SK-MEL-2 melanoma) was greater than 100 µM and the TGI (RXF 393 renal) was greater than 100 µM. It also gave a TGI (MDA-MB-231 breast) greater than 100 µM, a TGI (T-47D breast) greater than 100 µM and a TGI (RPMI-8226 leukemia) greater than 100 µM. The TGI (HL-60(TB) leukemia) was greater than 100 µM, the TGI (NCI-H226 lung) was greater than 100 µM and the TGI (SK-MEL-28 melanoma) was greater than 100 µM. It also gave a TGI (OVCAR-4 ovarian) greater than 100 µM, a TGI (BT-549 breast) greater than 100 µM and a TGI (SK-MEL-5 melanoma) greater than 100 µM. For the same compound, the TGI (SR leukemia) was greater than 100 µM, the TGI (M14 melanoma) was greater than 100 µM and the TGI (NCI/ADR-RES ovarian) was greater than 100 µM. It also gave a TGI (K-562 leukemia) greater than 100 µM, a TGI (SF-295 CNS) greater than 100 µM and a TGI (HOP-92 NSCLC) greater than 100 µM. The TGI (OVCAR-3 ovarian) was greater than 100 µM, the TGI (A498 renal) was greater than 100 µM and the TGI (HS 578T breast) was greater than 100 µM. The TGI (UACC-62 melanoma) was greater than 100 µM, the TGI (HCT-116 colon) was greater than 100 µM and the TGI (HT29 colon) was greater than 100 µM. For the same compound, the TGI (IGROV1 ovarian) was greater than 100 µM, the TGI (HOP-62 NSCLC) was greater than 100 µM and the TGI (EKVX NSCLC) was greater than 100 µM. The TGI (OVCAR-5 ovarian) was greater than 100 µM, the TGI (SW-620 colon) was greater than 100 µM and the TGI (DU-145 prostate) was greater than 100 µM. It also gave a TGI (UACC-257 melanoma) greater than 100 µM, a TGI (MALME-3M melanoma) greater than 100 µM and a TGI (786-0 renal) greater than 100 µM. It also gave a TGI (HCT-15 colon) greater than 100 µM, a TGI (LOX IMVI melanoma) greater than 100 µM and a TGI (UO-31 renal) greater than 100 µM.
